Measurements as given in patent US20110173718A1, “HERBICIDE TOLERANT PLANTS” (SYNGENTA CROP PROTECTION, INC., priority 2008, published 2011).
“And” between values parts separate entries of the source, which are not always exact repeats. Equal values may be shown once.

Assays:
[1] = test system: HST in spinach chloroplast extract; assay: HST assay (TLC, MFBQ formed), spinach chloroplast extract; format: biochemical; conditions: for Spinach chloroplast extract % I at 25 ppm: TLC, estimated amount of MFBQ formed, relative to controls
Method: HST enzyme preparations for assay are also prepared directly from fresh plant material. For example HST enzyme preparations are from spinach. In the first step intact spinach chloroplasts are prepared from two lots of 500 g of fresh baby spinach leaves (e.g from the salad section of the local supermarket). Prepacked spinach is usually already washed, but if buying loose leaves these must be rinsed in water before proceeding. Stalks, large leaves and mid-ribs are removed. Each 500 g lot of leaves is added to 1.5 l of ‘Grinding medium’ in a 2 L plastic beaker. Grinding medium is cold (4° C.) 50 mM Tricine/NaOH buffer at pH 7.1 containing 330 mM glucose, 2 mM sodium isoascorbate, 5 mM MgCl2 and 0.1% bovine serum albumen The beaker, kept at 4° C., is placed under a Polytron 6000 blender, fitted with a 1.5″cutting probe and the mixture blended in short bursts of 5-8 sec up to 8-10K rpm until all the leaves are macerated. The homogenate is filtered into a 5 L beaker (embedded in an ice bucket) through four layers of muslin, and two layers of 50μ mesh nylon cloth. The filtrate is transferred to 250 ml buckets of a Beckman GS-6 centrifuge and spun at […] (3020 rpm) for 2 min at 4° C. The supernatant is drained away and discarded to leave a sediment of chloroplasts. Chloroplasts are resuspended in a few ml of cold resuspension medium by gentle swirling and gentle use of a quill brush soaked in resuspension medium. Resuspension medium is 50 mM Hepes/KOH pH 7.8 containing 330 mM sorbitol, 2 mM EDTA, 5 mM KH2PO4, 2 mM MgCl2 and 0.1% bovine serum albumen at 4° C. The chloroplasts are resuspended in 5-10 ml of resuspension buffer, recentrifuged down and resuspended again in order to wash them. The chloroplasts are then once again centrifuged down and then broken by resuspension in about 5 ml of 50 mM Tricine-NaOH pH 7.8 to a protein concentration of about 40 mg/ml. The solution is stored frozen at −80° C. in aliquots. This resuspension is defrosted and used directly in HST activity assays. Alternatively, chloroplasts are prepared resuspended in 50 mM Tris/HCl buffer at pH 7.8 containing 330 mM sorbitol (alternative resuspension buffer) and layered on top of a percol gradient (comprising the same buffer containing 45% percol), spun down, the intact chloroplast fraction taken and washed 2 or 3 times in the alternative resuspension buffer and then spun down again, resuspended in breaking buffer (without sorbitol), flash frozen and stored in aliquots at −80° C.
Prenyltransferase (HST) activities are measured by determining the prenylation rates of [U—^14C]homogentisate using farnesyl diphosphate (FDP) as prenyl donor. ^14C homogentisate is prepared from ^14C tyrosine using L amino acid oxidase and HPPD. For inhibitor testing, compounds are dissolved in dimethylsulfoxide (DMSO). DMSO added at up to 2% v/v has no effect on assays. Control assays contain DMSO at the same concentration as in inhibitor containing assays.
Assays using spinach chloroplast extracts (100 μl final volume) contain up to 2 mg of chloroplast protein, 50 mM Tricine-NaOH pH 8.5, 50 mM MgCl2, 200 μM farnesyl diphosphate (FDP) and 26 μM ^14C-homogentisate (167 dpm/pmol). Assays are run for about an hour at 28° C. […] Lipophilic reactions products are extracted and analyzed essentially as described in the literature.
Using the above assays percentage inhibition of the amount of MFBQ formed at a range of doses of inhibitors relative to the control amount obtained with no inhibitor present is reported (Table 1). The better inhibitors give greater percentage inhibition at lower doses.

[2] = test system: wild-type (WT) Samsun tobacco; assay: Glasshouse spray test, wild-type tobacco; format: in vivo; conditions: for % damage at 7 DAT: WT Samsun, individual plants; for blch (% bleaching at the meristem relative to control plants) / ht (% height reduction relative to control plants): 100 g; for blch (% bleaching at the meristem relative to control plants) / ht (% height reduction relative to control plants) / percent damage at 6 DAT: WT; for % damage observed 16 DAT: w/t tobacco; for score on a scale from 0 to 10 (0 substantially bleached/burnt, meristem dead/white; 10 entire plant green and undamaged): 500 g/ha, 11 DAT
How it was run: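 Wild-type Samsun tobacco grown from seed was planted in 3 inch pots, grown on under glasshouse conditions (about 24-27° C. day, 18-21° C. night, ~14 h photoperiod, ~65% humidity) and spray-treated alongside transgenic lines. Test chemicals were formulated in water with 0.2% X77 surfactant and applied by track sprayer at 200 l/ha. Height reduction, bleaching and damage were scored against unsprayed control plants of like size.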

[3] = WT tobacco, spray with 40 g of compound 1.1, 7 DAT
[4] = WT tobacco, spray with 40 g of compound 1.1, 14 DAT
[5] = 17 DAT, Chlamydomonas HST section
[6] = WT tobacco, spray with 500 g of compound 2.30, 7 DAT
[7] = WT tobacco, spray with 500 g of compound 2.30, 17 DAT

For Oc1c(Cl)c(F)nc(F)c1Cl [Compound 1.1, haloxydine], which “Spinach chloroplast extract % I at 25 ppm” value [1] is on record?
The value was 70%.

And the “inhibition of the HST reaction” value ([1]; final concentration 500 ppm)?
The value was “completely inhibit”.

What about the “% damage at 7 DAT” value ([2]; 25 gai/ha) of the same compound?
The value was 75%.

What about the “% damaged” value ([2]; 250 g/ha, 8 DAT, w/t plants, 4-5 leaf) of the same compound?
Its value is 55% and 65%.

What about the “% damage” value ([2]; 250 g/ha, 25 DAT, w/t plants) of the same compound?
Its value is 50-70%.

And the “blch: % bleaching at the meristem relative to control plants” value [2, 3]?
Its value is 70% and 65% and 60% and 75% and 80%.

What about the “ht: % height reduction relative to control plants” value [2, 3] of the same compound?
The value was 60% and 65% and 75% and 70%.

And the “blch: % bleaching at the meristem relative to control plants” value [2, 4]?
The value was 40% and 70% and 60% and 75% and 65%.

What about the “ht: % height reduction relative to control plants” value [2, 4] of the same compound?
Its value is 60% and 70% and 75% and 65%.

What about the “ht: % height reduction relative to control plants” value ([2]; WT tobacco, spray with 40 g of compound 1.1, 21 DAT) of the same compound?
Its value is 70% and 80% and 85% and 60% and 55% and 65%.

O=c1c(-c2c(Cl)ccc(Cl)c2Cl)c(O)c2nccnc2n1CC(F)F [Compound 2.14] was tested. Which “Spinach chloroplast extract % I at 25 ppm” value [1] did it give?
Its value is 80%.

Which results are given for CC(C)C(=O)Oc1c(-c2c(F)ccc(Br)c2Cl)c(=O)n(CC(F)F)c2nccnc12 [Compound 2.30]?
blch (% bleaching at the meristem relative to control plants) ([2]; 7 DAT, Arabidopsis HST section): 85% and 70% and 75% and 80%; ht (% height reduction relative to control plants) ([2]; 7 DAT, Arabidopsis HST section): 80% and 85% and 75%; blch (% bleaching at the meristem relative to control plants) ([2]; 7 DAT, wheat HPPD section): 85% and 70% and 75% and 80%; ht (% height reduction relative to control plants) ([2]; 7 DAT, wheat HPPD section): 80% and 85% and 75%; blch (% bleaching at the meristem relative to control plants) [2, 5]: 85% and 70% and 75% and 80%; ht (% height reduction relative to control plants) [2, 5]: 80% and 85% and 75%; ht (% height reduction relative to control plants) ([2]; 21 DAT, wheat HPPD section): 95% and 90% and 75% and 80%; ht (% height reduction relative to control plants) ([2]; 26 DAT, Arabidopsis HST section): 95% and 90% and 75% and 80%; ht (% height reduction relative to control plants) ([2]; 26 DAT, Chlamydomonas HST section): 95% and 90% and 75% and 80%; percent damage at 6 DAT ([2]; 150 g/ha, reps): 70%; % damage at 7 DAT ([2]; 150 gai/ha): 75% and 80% and 85%; % damage at 7 DAT ([2]; 300 gai/ha): 75% and 70% and 80%; % damage at 7 DAT ([2]; 450 gai/ha): 70% (2×) and 75%; herbicide % damage ([2]; Compound 2.30, 150 g/ha, 14 DAT, WT control, reps): 60% and 70% and 75%; blch: % bleaching at the meristem relative to control plants [2, 6]: 70% and 75% and 80%; ht: % height reduction relative to control plants [2, 6]: 85% and 90%; blch: % bleaching at the meristem relative to control plants [2, 7]: 80% and 70% and 75%; ht: % height reduction relative to control plants [2, 7]: 90% and 85%; ht: % height reduction relative to control plants ([2]; WT tobacco, spray with 500 g of compound 2.30, 26 DAT): 70% and 85% and 100% and 90% and 80%

O=c1c(-c2c(F)ccc(F)c2Cl)c(O)c2cccnc2n1CC(F)F [Compound 2.13] was tested. Which “Spinach chloroplast extract % I at 25 ppm” value [1] did it give?
The value was 40%.

O=c1c(-c2c(F)ccc(Br)c2Cl)c(O)c2nccnc2n1CC(F)F [Compound 2.8] was tested. Which “Spinach chloroplast extract % I at 25 ppm” value [1] did it give?
The value was 70%.

With O=c1c(-c2c(F)ccc(F)c2Cl)c(O)c2nccnc2n1CC(F)F [Compound 2.3] as the compound, how does the “% damage observed 16 DAT” value ([2]; 37 g/ha) read?
Its value is 17%.

And the “% damage observed 16 DAT” value ([2]; 111 g/ha)?
Its value is 40%.

And the “% damage observed 16 DAT” value ([2]; 333 g/ha)?
The value was 47%.

What about the “score on a scale from 0 to 10 (0 substantially bleached/burnt, meristem dead/white; 10 entire plant green and undamaged)” value ([2]; W/T_SD) of the same compound?
The value was 0.

And the “score on a scale from 0 to 10 (0 substantially bleached/burnt, meristem dead/white; 10 entire plant green and undamaged)” value ([2]; W/T_TC)?
Its value is 0.

And the “% damage observed 16 DAT” value ([2]; 1000 g/ha)?
The value was 57%.

CS(=O)(=O)c1ccc(C(=O)C2C(=O)CCCC2=O)c([N+](=O)[O-])c1 [Mesotrione, mesotrione, reference compound] was tested. Which “Damage % 5 DAT” value ([2]; 10 g/ha, 5 DAT, wt plants) did it give?
Its value is 55% and 50% and 60%.

What about the “% damage observed 16 DAT” value ([2]; 37 g/ha) of the same compound?
The value was 66%.

And the “percent damage at 6 DAT” value ([2]; 100 g/ha, reps)?
The value was 80% and 70%.

And the “% damage observed 16 DAT” value ([2]; 111 g/ha)?
The value was 57%.

And the “% damage observed 16 DAT” value ([2]; 333 g/ha)?
Its value is 57%.

What about the “% damage observed 16 DAT” value ([2]; 1000 g/ha) of the same compound?
Its value is 54%.

And the “ht (herbicidal damage)” value ([2]; WT tobacco, 15 g/ha of mesotrione, 21 DAT)?
The value was 90 and 85 and 75.

Which “Spinach chloroplast extract % I at 25 ppm” value [1] does the source give for O=c1c(-c2cc(C(F)(F)F)ccc2Cl)c(O)c2nccnc2n1CC(F)F [Compound 2.9] here?
Its value is 90%.
